Experimental data: article PMC12005307, “A biofilm-targeting lipo-peptoid to treat Pseudomonas aeruginosa and Staphylococcus aureus co-infections” (Biofilm, 2025)
Values after ≈ are worked out from the molar mass of the structure shown. Like-named read-outs stand apart in the source and are kept apart here.

What was measured:
[1] = tested on: P. aeruginosa LESB58; assay: MIC, broth microdilution; type: cell-based; conditions: Pseudomonas aeruginosa
Procedure: (§1) Minimum inhibitory concentrations (MIC) were determined using an adapted broth microdilution method in Greiner bio flat chimney polypropylene 96-well plates. P. aeruginosa was used at 1 × 10^6 CFU/mL and S. aureus at 5 × 10^6 CFU/mL in MHB (Oxoid) and DFG, respectively. A separate polypropylene plate was used to prepare two-fold peptoid dilutions in PBS pH 7.5 (Gibco). Bacterial growth was determined by visible turbidity after incubation at 37 °C for 16 h (S. aureus) or 24 h (P. aeruginosa). MIC values were determined as the lowest concentration of the drug where no bacterial growth was visible. Metabolic activity (color change from blue to pink) was further determined by adding the metabolic dye PrestoBlue™ (Invitrogen) to each well for 30 min as confirmation of visual determination. All tests were performed in triplicate.

[2] = tested on: S. aureus USA300 LAC; assay: MIC, broth microdilution; type: cell-based; conditions: Staphylococcus aureus, Table S6, antibiotic screen, medium not given
Procedure: as §1

[3] = tested on: P. aeruginosa LESB58; assay: Checkerboard titration assay (in vitro synergy); type: cell-based, Pseudomonas aeruginosa; conditions: DFG; for Fold decrease in TM18 MIC: TM18 in combination with the named antibiotic; for Fold decrease in TM18 MIC / FICI, antibiotic combination with TM18: checkerboard; for Fold decrease in antibiotic MIC: antibiotic in combination with TM18, checkerboard; for FICI, antibiotic combination with TM18: 1 × 10^6 CFU/mL, 37 °C, 16–24 h, >0.5 and <=1 additive
Procedure: (§2) Each compound was serially diluted in PBS before transferring to a 96-well plate containing 1 × 10^6 CFU/mL P. aeruginosa or S. aureus, respectively, in DFG medium and incubated at 37 °C for 16–24 h. The MIC or combinatorial effect was determined as the lowest concentration with no visible growth and the fractional inhibitory concentration index (FICI) was calculated as [(MICA in combination)/MICA] + [(MICB in combination)/MICB] as previously. FICIs ≤ 0.5 indicate synergy, 0.5–1 indicate additivity and values above 1 indicate indifference or antagonism.

[4] = tested on: S. aureus USA300 LAC; assay: Checkerboard titration assay (in vitro synergy); type: cell-based, Staphylococcus aureus; conditions: DFG; for Fold decrease in TM18 MIC: TM18 in combination with the named antibiotic; for Fold decrease in TM18 MIC / FICI, antibiotic combination with TM18: checkerboard; for Fold decrease in antibiotic MIC: antibiotic in combination with TM18, checkerboard; for FICI, antibiotic combination with TM18: 1 × 10^6 CFU/mL, 37 °C, 16–24 h, >0.5 and <=1 additive
Procedure: as §2

[5] = tested on: P. aeruginosa LESB58 and S. aureus USA300 LAC; assay: Murine skin abscess model, co-infection, abscess size; type: in vivo, Pseudomonas aeruginosa and Staphylococcus aureus; conditions: 2.5 × 10^7 CFU of each species s.c., 5 mg/kg of each agent intra-abscess after 1 h
Procedure: (§3) The abscess model was performed as described previously for mono-species infections and modified as follows for dual-species infection. P. aeruginosa and S. aureus were grown individually to an OD600 of 1.0 in dYT broth. Bacterial cells were washed twice in PBS pH 7.4 (Gibco) and resuspended to an OD600 of 2.0 for S. aureus (∼2.5 × 10^7) and 1.0 for P. aeruginosa (∼2.5 × 10^7). For co-infections, P. aeruginosa and S. aureus were mixed (1:1) immediately before injecting 50 μL subcutaneously into the right side of the dorsum. TM1, TM14, TM18, or sterile PBS were injected directly into the infected area 1-h post-infection at a concentration of 5 mg/kg which was the highest concentration determined as non-toxic in our murine model (Table S10). The progression of the infection was monitored daily. A caliper was used to measure the abscess lesion size manually. The SilhouetteStar™ 3D wound camera and SilhouetteConnect™ software were used to photograph, measure, and analyze abscess lesion sizes (visible dermonecrosis). The skin abscesses (including accumulated pus) were excised and homogenized in sterile PBS using SPEX®SamplePrep 1600 MiniG™ for 5 min. […]
(§4) In vitro experiments were performed with at least three biological replicates. […] The predicted additive effect (PAE) was determined by calculating the sum of CFU log reduction for each individual treatment. […]

[6] = tested on: P. aeruginosa LESB58; assay: Murine skin abscess model, co-infection, P. aeruginosa survivors; type: in vivo, Pseudomonas aeruginosa; conditions: 5 mg/kg intra-abscess after 1 h, day 3, CFU on selective agar
Procedure: as §3, §4

[7] = tested on: S. aureus USA300 LAC; assay: Murine skin abscess model, co-infection, S. aureus survivors; type: in vivo, Staphylococcus aureus; conditions: 5 mg/kg intra-abscess after 1 h, day 3, CFU on selective agar
Procedure: as §3, §4

[8] = Table S6, antibiotic screen, medium not given, read-out: MIC

CC[C@H]1OC(=O)[C@H](C)[C@@H](O[C@H]2C[C@@](C)(OC)[C@@H](O)[C@H](C)O2)[C@H](C)[C@@H](O[C@@H]2O[C@H](C)C[C@H](N(C)C)[C@H]2O)[C@](C)(O)C[C@@H](C)CN(C)[C@H](C)[C@@H](O)[C@]1(C)O [AZM, azithromycin]
MIC [1, 8]: 25 µg/mL (≈ 33.4 µM)
MIC [2]: 125 µg/mL (≈ 167 µM)
Fold decrease in TM18 MIC [3]: 8 fold
Fold decrease in antibiotic MIC [3]: 2 fold
FICI, antibiotic combination with TM18 [3]: 0.625
Fold decrease in TM18 MIC [4]: 1 fold
Fold decrease in antibiotic MIC [4]: 1 fold
FICI, antibiotic combination with TM18 [4]: 1

CC(C)(O/N=C(\C(=O)N[C@@H]1C(=O)N2C(C(=O)[O-])=C(C[n+]3ccccc3)CS[C@H]12)c1csc(N)n1)C(=O)O [CAZ, ceftazidime]
MIC [1, 8]: 12.5 µg/mL (≈ 22.9 µM)
MIC [2]: 31.2 µg/mL (≈ 57.2 µM)
Fold decrease in TM18 MIC [3]: 2 fold
Fold decrease in antibiotic MIC [3]: 4 fold
FICI, antibiotic combination with TM18 [3]: 0.75
Fold decrease in TM18 MIC [4]: 1 fold
Fold decrease in antibiotic MIC [4]: 1 fold
FICI, antibiotic combination with TM18 [4]: 1

O=C(O)c1cn(C2CC2)c2cc(N3CCNCC3)c(F)cc2c1=O [CIP, ciprofloxacin]
MIC [1, 8]: 3.13 µg/mL (≈ 9.45 µM)
MIC [2]: 15.6 µg/mL (≈ 47.2 µM)
Fold decrease in TM18 MIC [3]: 1 fold
Fold decrease in antibiotic MIC [3]: 2 fold
FICI, antibiotic combination with TM18 [3]: 1
Fold decrease in TM18 MIC [4]: 4 fold
Fold decrease in antibiotic MIC [4]: 2 fold
FICI, antibiotic combination with TM18 [4]: 0.75

CNC(C)C1CCC(N)C(OC2C(N)CC(N)C(OC3OCC(C)(O)C(NC)C3O)C2O)O1 (stereo not shown) [GEN, gentamicin]
MIC [1, 8]: 7.81 µg/mL (≈ 16.4 µM)
MIC [2]: 0.78 µg/mL (≈ 1.63 µM)
Fold decrease in TM18 MIC [3]: 1 fold
Fold decrease in antibiotic MIC [3]: 2 fold
FICI, antibiotic combination with TM18 [3]: 1
Fold decrease in TM18 MIC [4]: 1 fold
Fold decrease in antibiotic MIC [4]: 2 fold
FICI, antibiotic combination with TM18 [4]: 1

C[C@@H](O)[C@H]1C(=O)N2C(C(=O)O)=C(S[C@@H]3CN[C@H](C(=O)N(C)C)C3)[C@H](C)[C@H]12 [meropenem]
MIC [1]: 1.56 µg/mL (≈ 4.07 µM)
MIC [2]: 0.78 µg/mL (≈ 2.03 µM)
Fold decrease in TM18 MIC [3]: 2 fold
Fold decrease in antibiotic MIC [3]: 2 fold
FICI, antibiotic combination with TM18 [3]: 1
Fold decrease in TM18 MIC [4]: 2 fold
Fold decrease in antibiotic MIC [4]: 4 fold
FICI, antibiotic combination with TM18 [4]: 0.75
reduction of abscess sizes ([5]; day 3): 78%
reduction of abscess sizes ([5]; day 3, listed as Meropenem): 85%
reduction of P. aeruginosa survivors [6]: ~100 fold
reduction of S. aureus survivors [7]: ~10 fold

NC[C@H]1O[C@H](O[C@H]2[C@H](O)[C@@H](O[C@H]3O[C@H](CO)[C@@H](O)[C@H](N)[C@H]3O)[C@H](N)C[C@@H]2N)[C@H](N)C[C@@H]1O [tobramycin]
MIC [1, 8]: 1.56 µg/mL (≈ 3.34 µM)
MIC [2]: 0.78 µg/mL (≈ 1.67 µM)
Fold decrease in TM18 MIC [3]: 2 fold
Fold decrease in antibiotic MIC [3]: 2 fold
FICI, antibiotic combination with TM18 [3]: 1
Fold decrease in TM18 MIC [4]: 1 fold
Fold decrease in antibiotic MIC [4]: 1 fold
FICI, antibiotic combination with TM18 [4]: 1
